Measured values reported in ChEMBL document CHEMBL1811888, “Synthesis, biological activity and HPLC validation of 1,2,3,4-tetrahydroacridine derivatives as acetylcholinesterase inhibitors” (Eur J Med Chem, 2011).

Columns and labels:
Acetylcholinesterase = Acetylcholinesterase (Homo sapiens, UniProt P22303); assay: Inhibition of AChE by Ellman's method
Cholinesterase = Cholinesterase (Homo sapiens, UniProt P06276)
Cholinesterase, sequence (P06276 whole entry): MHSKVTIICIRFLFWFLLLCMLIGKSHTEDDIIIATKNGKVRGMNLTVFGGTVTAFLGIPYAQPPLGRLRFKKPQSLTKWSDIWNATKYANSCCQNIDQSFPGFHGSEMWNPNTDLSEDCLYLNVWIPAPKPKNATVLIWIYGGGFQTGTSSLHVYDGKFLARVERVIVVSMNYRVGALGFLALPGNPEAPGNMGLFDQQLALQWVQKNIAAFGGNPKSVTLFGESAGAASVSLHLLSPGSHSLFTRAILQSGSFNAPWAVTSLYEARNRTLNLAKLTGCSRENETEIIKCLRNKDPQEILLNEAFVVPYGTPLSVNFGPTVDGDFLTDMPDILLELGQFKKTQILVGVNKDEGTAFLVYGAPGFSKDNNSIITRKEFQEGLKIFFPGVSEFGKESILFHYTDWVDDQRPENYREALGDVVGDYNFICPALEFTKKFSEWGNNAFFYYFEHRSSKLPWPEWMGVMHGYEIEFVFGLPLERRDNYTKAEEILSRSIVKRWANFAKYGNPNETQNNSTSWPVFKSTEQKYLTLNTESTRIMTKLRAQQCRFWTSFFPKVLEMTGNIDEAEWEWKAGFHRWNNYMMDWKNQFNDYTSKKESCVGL
Description: Inhibition of BChE by Ellman's method

Acetylcholinesterase, sequence (P22303 whole entry): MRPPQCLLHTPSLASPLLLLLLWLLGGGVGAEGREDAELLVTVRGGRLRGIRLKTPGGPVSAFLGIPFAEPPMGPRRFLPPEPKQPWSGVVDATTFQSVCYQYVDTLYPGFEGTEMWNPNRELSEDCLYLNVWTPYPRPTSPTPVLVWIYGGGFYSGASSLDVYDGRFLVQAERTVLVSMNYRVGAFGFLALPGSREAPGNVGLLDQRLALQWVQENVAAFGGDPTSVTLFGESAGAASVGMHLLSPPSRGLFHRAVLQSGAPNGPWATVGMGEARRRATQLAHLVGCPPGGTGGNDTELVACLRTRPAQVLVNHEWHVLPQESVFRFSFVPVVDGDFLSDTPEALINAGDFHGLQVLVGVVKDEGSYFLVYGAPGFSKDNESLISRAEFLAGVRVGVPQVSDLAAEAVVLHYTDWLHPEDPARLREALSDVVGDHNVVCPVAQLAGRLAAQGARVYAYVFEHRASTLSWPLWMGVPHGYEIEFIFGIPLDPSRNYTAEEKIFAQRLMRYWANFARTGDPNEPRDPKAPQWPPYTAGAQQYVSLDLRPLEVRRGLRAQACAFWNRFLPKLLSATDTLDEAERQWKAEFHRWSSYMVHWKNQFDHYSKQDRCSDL

Structure (SMILES)	IC50 (Acetylcholinesterase) [nM]	IC50 (Cholinesterase) [nM]
O=C(NCCNc1c2c(nc3ccccc13)CCCC2)c1ccc(F)cc1	0.815	0.0449
O=C(NCCCNc1c2c(nc3ccccc13)CCCC2)c1ccc(F)cc1	0.809	0.0212
O=C(NCCCCNc1c2c(nc3ccccc13)CCCC2)c1ccc(F)cc1	0.784	0.0354
